How the values were obtained:
[1] = target: T1, human sEH (Homo sapiens, UniProt P34913); test: sEH enzyme kinetics (PHOME hydrolysis, Michaelis-Menten/Dixon analysis); type: biochemical; conditions: for type of inhibition of sEH: Lineweaver-Burk and Dixon plots; for Ki: human sEH, PHOME
T1 construct: purchased Cayman Chemical
T1 sequence (P34913 1-555): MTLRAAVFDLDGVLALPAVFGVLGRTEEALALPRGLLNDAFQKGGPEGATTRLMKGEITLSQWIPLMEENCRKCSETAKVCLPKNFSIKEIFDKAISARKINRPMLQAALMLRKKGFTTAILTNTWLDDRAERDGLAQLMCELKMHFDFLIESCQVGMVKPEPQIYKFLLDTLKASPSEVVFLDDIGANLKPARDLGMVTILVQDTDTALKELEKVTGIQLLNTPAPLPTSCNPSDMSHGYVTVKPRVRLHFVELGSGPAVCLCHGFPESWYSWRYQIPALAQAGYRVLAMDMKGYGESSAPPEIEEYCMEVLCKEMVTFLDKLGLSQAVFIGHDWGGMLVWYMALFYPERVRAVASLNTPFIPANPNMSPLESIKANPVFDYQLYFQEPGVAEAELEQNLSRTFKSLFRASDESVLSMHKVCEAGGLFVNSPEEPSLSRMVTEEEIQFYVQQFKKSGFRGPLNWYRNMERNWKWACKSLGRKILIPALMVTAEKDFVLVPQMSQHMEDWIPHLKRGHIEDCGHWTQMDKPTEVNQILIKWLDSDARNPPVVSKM
Description: Various concentrations of compound dissolved in DMSO (final DMSO concentration=5% (v/v)) and human sEH (60 ng/mL final concentration; Cayman Chemical) in 25 mM bis-Tris-HCl buffer containing 0.1% (w/v) BSA were mixed in a 96 well plate. PHOME at indicated concentrations was added to the wells to initiate the reaction and fluorescence was read with an excitation wavelength of 330 nm and emission wavelength of 465 nm. The standard curve plotted from dilutions of the product, 6-methoxy-2-naphthaldehyde, was used to convert fluorescence reading (RFU/min) to sEH activity (nmol product formed/min). The reaction rate was obtained from the slope of the line from time=5 to 15 minutes for each substrate concentration, and analyzed using GraphPad Prism 7 and SigmaPlot 13.0 to determine Michaelis-Menten kinetic parameters.

[2] = target: T2, sEH activity in L-CNV eye tissue homogenates (Mus musculus, UniProt P34914); test: Tissue-based sEH activity assay using trans-stilbene oxide; type: biochemical; conditions: 20 μM, 3 days post-laser-treatment, trans-stilbene oxide substrate
T2 construct: from tissue; host or cells: mouse eye homogenate (C57BL/6J, L-CNV), 100,000 x g supernatant
T2 sequence (P34914 1-554): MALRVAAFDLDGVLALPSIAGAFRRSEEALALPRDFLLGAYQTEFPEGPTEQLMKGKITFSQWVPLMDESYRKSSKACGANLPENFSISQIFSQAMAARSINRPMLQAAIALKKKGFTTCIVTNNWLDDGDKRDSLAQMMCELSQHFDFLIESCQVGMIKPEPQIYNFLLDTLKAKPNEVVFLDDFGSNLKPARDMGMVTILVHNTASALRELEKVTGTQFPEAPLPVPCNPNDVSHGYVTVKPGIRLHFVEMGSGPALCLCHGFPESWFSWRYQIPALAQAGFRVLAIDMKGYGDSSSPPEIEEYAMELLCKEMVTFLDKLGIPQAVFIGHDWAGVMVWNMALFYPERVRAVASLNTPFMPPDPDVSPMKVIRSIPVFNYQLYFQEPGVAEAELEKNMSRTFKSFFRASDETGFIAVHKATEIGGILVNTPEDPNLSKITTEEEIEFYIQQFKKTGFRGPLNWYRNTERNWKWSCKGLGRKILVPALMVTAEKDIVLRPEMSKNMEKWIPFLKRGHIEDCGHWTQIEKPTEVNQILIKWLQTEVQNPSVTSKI
Description: The sEH activity in tissue homogenates was assayed using trans-stilbene oxide (t-SO) as substrate. The assay is based on the hydrolysis of t-SO that is tracked as a decrease in the absorbance at 230 nm. L-CNV was induced as described above. After 3 days, enucleated eyes from both untreated and L-CNV mice were homogenized in 0.2 M sodium phosphate buffer, pH 7.4. To remove microsomal epoxide hydrolase and lenses, tissue extracts were centrifuged at 100,000×g for 30 minutes at 4° C. After protein estimation, 100 μL of tissue homogenates (100 μg/mL) and 98 μL of SH-11037 or 7 dissolved in DMSO/buffer (final 1% (v/v) DMSO) were added to a UV-transparent 96-well plate. After 5 minutes' incubation at room temperature, 2 μL of t-SO in ethanol (100 μM final concentration) was added to assay wells to initiate the reaction. The absorbance was read at 230 nm for 20 minutes. sEH activity was determined as follows:
sEH Activity=[(A0−A20)−(B0−B20)]/mg of protein in a reaction
Where A0 and A20 are absorbance of test wells read at 230 nm at time 0 and 20 minutes respectively, and B0 and B20 are absorbance of background wells read at 230 nm at time 0 and 20 minutes.

[3] = tested on: choroidal neovascularization; test: Laser-induced choroidal neovascularization (L-CNV) mouse model, CNV lesion volume; type: in vivo; conditions: single intravitreal injection, 14 days post-laser, vs vehicle
[4] = tested on: mouse choroidal sprouting; test: Choroidal sprouting assay (ex vivo); type: cell-based; conditions: 0.1, 1, 10 μM, 48 hours, vs vehicle
Description: Benzisoxazole sEH inhibitor 7 was synthesized according to the method as described in Shen et al., Bioorg. […] Sprouting of endothelial cells from choroidal layers was tested as described in Sulaiman et al., Sci. Rep. […] The final concentration of DMSO in each well was 0.2% (v/v). Images were taken using an EVOS-fl digital microscope (AMG, Mill Creek, WA, USA) and data were analyzed as the sprouting distance in four different directions using ImageJ software v.1.48v (http://imagej.nih.gov/ij/).

[5] = target: T3, soluble epoxide hydrolase (sEH) (Homo sapiens, UniProt P34913); test: Recombinant soluble epoxide hydrolase activity assay (fluorogenic substrate PHOME)
T3 sequence (P34913 1-555): T1 sequence (P34913 1-555)
Description: Compounds were dissolved in DMSO (final DMSO concentration=5% (v/v)). Activity was calculated according to:
% Initial Activity=[(FI15−FI0)/(FT15−FT0)]×100%
where FI is the background corrected fluorescence signal obtained in the presence of an inhibitor and FT is the background corrected fluorescence signal obtained for the total activity at times 0 and 15 minutes. IC50 values were calculated using GraphPad Prism v.

[6] = tested on: sEH; test: Lipid profiling of retina/choroid in L-CNV mice (19,20-EDP/DHDP ratio as sEH activity in vivo); design: species or system mouse; conditions: 10 μM intravitreal, 3 days post-laser, vs vehicle treated controls
Description: The L-CNV mouse model and injections were performed as previously described. […] Compounds where indicated were injected a single time immediately post-laser treatment, delivered intravitreally using a 33-gauge needle, in a 0.5 μL volume. […] Vehicle alone (PBS+0.5% (v/v) DMSO) was used as negative control. […] Eyes were numbed with tetracaine solution before the injection, and triple antibiotic ointment was used immediately after the injection to prevent infection. Lipid Profiling
Mice were sacrificed 3 days post-laser-treatment, eyes were enucleated and retina/choroid layers were immediately separated and stored at −80° C.

[7] = tested on: choroidal neovascularization; conditions: cited from earlier work

| SMILES | type of inhibition of sEH [1] | Ki ([1]; Dixon plot, n=3) | sEH activity in L-CNV eye lysates [2] | CNV lesion vascular volume [3] | ability of choroidal tissues to form sprouts [4] | IC50 [5] | Ki [1] | ratio of 19,20-EDP to 19,20-DHDP in retina/choroid [6] | combination with anti-VEGF antibody in L-CNV ([7]; WO 2017/091473) | effective doses in L-CNV, intravitreal ([7]; previously shown (Sulaiman et al. 2016; WO 2017/091473)) |
| --- | --- | --- | --- | --- | --- | --- | --- | --- | --- | --- |
| FC(F)(F)c1ccc(Nc2noc3c(C(F)(F)F)cccc23)cc1 [compound 7, 7-(trifluoromethyl)-N-(4-(trifluoromethyl)phenyl) benzo[d]isoxazol-3-amine, reference compound] | mixed-type inhibitor | 19.6 nM | normalized | dose-dependently suppressed | suppressed | 9.5 nM | – | – | – | – |
| COc1ccc(CC2COc3cc(OC)c(OC)c(OC)c3C2=O)cc1OC(=O)[C@H](Cc1ccccc1)NC(=O)OC(C)(C)C (stereo partly drawn) [SH-11037, (2S)-2-methoxy-5-((5,6,7-trimethoxy-4-oxochroman-3-yl)methyl)phenyl 2-((tert-butoxycarbonyl)amino)-3-phenylpropanoate] | mixed-type inhibitor | – | normalized | – | – | 150 nM | 1730 ± 450 nM | partially normalized | synergize | > 1 µM |

— patent US20240082211A1, “SOLUBLE EPOXIDE HYDROLASE AS A TARGET FOR OCULAR DISEASES” (Indiana University Research and Technology Corporation, priority 2017, published 2024)
